Series [1] can be described thus: thermodynamic stability of polymorphs (DSC comparison). The class given is physicochemical. On the procedure:
Pipindoxifene hydrochloride monohydrate can also exist as form I polymorph. Sample data for certain physical properties are compared for form I and form II polymorphs below in Table 2.
DSC measurements were carried out in both sealed pan and vented pan at a scan rate of 10° C./min from 25° C. to 200° C. under nitrogen purge using a Pyris I DSC from Perkin-Elmer.

Series [2] has as its system tamoxifen-sensitive cells lines. Conditions: other studies; cited from earlier work.
The subject of series [3] is tamoxifen-resistent MCF-7 breast cancer xenografts. The note with it: recent preclinical studies; cited from earlier work.
Series [4] concerns uterus. The note with it: tissue selective estrogenic effects; cited from earlier work.

The structures appear in SMILES notation. Where two headings read alike, the source gives them in different places.

On to `Cc1c(-c2ccc(O)cc2)n(Cc2ccc(OCCN3CCCCC3)cc2)c2ccc(O)cc12.Cl` [Form I, pipindoxifene hydrochloride monohydrate], for which, in series [1] (form I versus form II, from Table 2 DSC data, hydrochloride monohydrate), the “thermodynamic stability of crystalline polymorph” value was “thermodynamically more stable than form II”.

As for `Cc1c(-c2ccc(O)cc2)n(Cc2ccc(OCCN3CCCCC3)cc2)c2ccc(O)cc12.Cl` [pipindoxifene, 2-(4-hydroxyphenyl)-3-methyl-1-[4-(2-piperidin-1-ylethoxy)-benzyl]-1H-indol-5-ol hydrochloride], the “effectiveness in tamoxifen-sensitive cell lines” value in series [2] is given as “effectiveness”. In addition, in series [3], the “growth of tamoxifen-resistant MCF-7 breast cancer xenografts” value is on record as “inhibited the growth”. Besides, in series [4], the uterotropic activity result is listed as “little or no uterotropic activity”. With `Cc1c(-c2ccc(O)cc2)n(Cc2ccc(OCCN3CCCCC3)cc2)c2ccc(O)cc12.Cl` [form II, pipindoxifene hydrochloride monohydrate], in series [1], the “thermodynamic stability of crystalline polymorph” value was “Less thermodynamically stable”.
